The source of these data is US20250367183A1, “SUBSTANCE FOR PROMOTING REGENERATION AND REPAIR OF ORGANS OF MAMMALS AND USE THEREOF” (INSTITUTE OF ZOOLOGY, CHINESE ACADEMY OF SCIENCES, priority 2022, published 2025).

Where two headings read alike, the source gives them in different places.

Assay [1] relates to 2 mm diameter mouse ear hole. As to the kind of experiment: ear hole trauma mouse model, 2 mm diameter ear puncher. It counts as in vivo, C57BL/6 mice. As to conditions: for healing of 2 mm ear hole: ferroptosis/autophagy inhibitors 10-20 mg/kg, measured 21 days after damage, n≥8 (FIG. 3); for healing of the 2 mm ear hole: treated 21 days, vs Vehicle (FIG. 1B).
Assay [2] relates to 4 mm diameter mouse ear hole. On the set-up: species or system mice. Conditions: in vivo.
The test system of assay [3] is overall protein translation. Format: cell-based.

For the molecule `O=C1OC(COc2ccccc2[N+](=O)[O-])CC1Cc1ccccc1` (stereo not shown) [3BDO], in assay [1], the “healing of 2 mm ear hole” value was “Neither inhibitors of ferroptosis nor autophagy could promote the healing of the ear hole like CHX”.

As to `COc1ccc(C[C@H]2NC[C@H](O)[C@H]2OC(C)=O)cc1` [Ani, anisomycin], the “healing of the 2 mm ear hole” value in assay [1] (Ani 10 mg/kg) is given as “significantly promote the healing of the ear hole”.

`Cc1cc(Nc2cc(Cl)nc(Oc3ccc([N+](=O)[O-])cc3)n2)n[nH]1` [Autophinib]: the “healing of 2 mm ear hole” value in assay [1] was “Neither inhibitors of ferroptosis nor autophagy could promote the healing of the ear hole like CHX”.

For the molecule `C[C@@H]1C[C@@H]([C@H](O)CC2CC(=O)NC(=O)C2)C(=O)[C@@H](C)C1` [CHX, 4-((R)-2-((1S,3S,5S)-3,5-dimethyl-2-oxocyclohexyl)-2-hydroxyethyl)piperidine-2,6-dione], the “wound area of 4 mm ear hole” value in assay [2] is “significantly reduced”. The ISG gene expression result in the assay with ISG genes (fibroblasts and macrophages) was “upregulate the expression of classical ISGs”. The “HE staining of auricle tissue” value in assay [1] (CHX 20 mg/kg (FIG. 1E)) was “the trauma had completely healed”; in assay [1] (CHX 20 mg/kg, 15th day after trauma (FIG. 1F)), “healed the tissue after damage and formed granulation tissue”. In addition, the “KI67 immunohistochemical staining of auricle tissue” value in assay [1] (CHX 20 mg/kg, 7 days, basal cells (FIG. 1G)) is “expressed a large amount of KI67”. For the same molecule, the “closure of 2 mm ear hole wound” value in assay [1] (CHX 20 mg/kg, 30 days (FIG. 1D)) is on record as “completely closed”; in assay [1] (CHX greater than 8 mg/kg, after three weeks of treatment (FIG. 1C)), “completely closed”. In assay [1] (CHX 20 mg/kg, 180 days after ear hole closure (FIG. 1H)), the “HE staining of auricle tissue, regenerated tissues” value was “regeneration of tissues and tissue derivatives such as hair follicles, glands, cartilage, muscles and blood vessels”. Also, the “healing of the 2 mm ear hole” value in assay [1] (CHX 20 mg/kg) was “significantly promote the healing of the ear hole”. Further, the “closure of 2 mm ear hole” value in assay [1] (each concentration of CHX, intraperitoneal, n≥8 (FIG. 1C)) is “promoted the closure of a 2 mm diameter of ear holes”. The “healing effect by administration manner” value in assay [1] (oral gavage and intraperitoneal injection, 3 weeks (FIG. 1I)) is “different manners of administration had the effect of promoting regeneration”.

`Cn1nc(C(C)(C)C)cc1NC(=O)Nc1ccc(Oc2ccncc2)cc1` [MAPK13-IN-1]: the ISG gene expression entry with ISG genes (FIG. 9B, cell type not given) is listed as “promote the ISG gene expression”. Besides, in assay [1] (MAPK13-IN-1 20 mg/kg (FIG. 9C)), the “HE staining of ear hole” value was “the trauma was almost completely healed”. Besides, the “Masson staining of ear hole” value in assay [1] (MAPK13-IN-1, 21 days of treatment (FIG. 9D)) is reported as “Obvious regeneration of muscle fiber bundles was observed”.

Take `O=C1N[C@@H]2C(=C[C@H](O)[C@@H](O)[C@H]2O)c2cc3c(c(O)c21)OCO3` [Narciclasine]: the ISG gene expression result in the assay with ISG genes (fibroblasts and macrophages) is listed as “significantly promoted the expression of ISG genes”. The “inhibition of overall protein translation” value in assay [3] is “significantly inhibit the overall protein translation”. Besides, in assay [1] (Narciclasine 1-3 mg/kg (FIG. 5F, 5G)), the “regenerated tissues in closed ear holes (histochemical, Masson)” value was “regenerate tissues and tissue derivatives such as hair follicles, glands, cartilage and muscles”. For the same molecule, the “healing of 2 mm ear holes” value in assay [1] (Narciclasine 1-3 mg/kg, intraperitoneal (FIG. 5D, 5E)) is given as “significantly promote the healing of 2 mm ear holes”.

As for `O=C1N[C@H]2[C@H](O)[C@H](O)[C@@H](O)[C@H](O)[C@@H]2c2cc3c(c(O)c21)OCO3` [Pancratistatin], in the assay on ISG genes, the ISG gene expression entry was “significantly promote the ISG gene expression”. Besides, the “inhibition of overall protein translation” value in assay [3] is “significantly inhibit overall protein translation”. Further, in assay [1] (mouse, in vivo), the “HE and Masson staining of ear hole” value is “completely closed and identified as a regeneration event”; the “closure of 2 mm ear hole” value is given as “the ear hole was completely closed”.

As for `O=C(Nc1ccc(C(O)(C(F)(F)F)C(F)(F)F)cc1)c1ccc(C(F)(F)F)cc1` [SR1078], in assay [1] (SR1078 1 mg/kg, 21 days after trauma, n≥7 (FIG. 10A)), the “healing of ear holes” value was “significantly inhibited regeneration”.

As to `O=S(=O)(Nc1ccc(C(O)(C(F)(F)F)C(F)(F)F)cc1)c1cccs1` [SR3335], in the assay on ISG genes (fibroblasts and macrophages), the ISG gene expression entry is on record as “promote the ISG gene expression”. In assay [1] (SR3335 10 mg/kg, 21 days after trauma, n≥7 (FIG. 10A)), the “healing of ear holes” value is “promoted the ear holes”. The “HE staining of ear hole” value in assay [1] (SR3335 (FIG. 10D)) is recorded as “the wound was almost completely healed”. For the same molecule, the “Masson staining of ear hole” value in assay [1] (SR3335, 21 days of treatment (FIG. 10E)) was “regeneration structures of cartilage, hair follicles, sebaceous glands (arrows), and muscles”.

Consider `O=S(=O)(NCCN1CCNCC1)c1ccc(NC2CCCCC2)c(NCc2ccccc2)c1` [UAMC-3203], for which, in assay [1], the “healing of 2 mm ear hole” value is “Neither inhibitors of ferroptosis nor autophagy could promote the healing of the ear hole like CHX”.

B1: S100A8/A9: S100A8/A9 heterodimer (Biolegend, 765502), alarmin protein (protein, UniProt P05109 1-93; P06702 1-114, looked up)
Protein S100-A8: MLTELEKALNSIIDVYHKYSLIKGNFHAVYRDDLKKLLETECPQYIRKKGADVWFKELDINTDGAVNFQEFLILVIKMGVAAHKKSHEESHKE
Protein S100-A9: MTCKMSQLERNIETIINTFHQYSVKLGHPDTLNQGEFKELVRKDLQNFLKKENKNEKVIEHIMEDLDTNADKQLSFEEFIMLMARLTWASHEKMHEGDEGPGHHHKPGLGEGTP
Turning to B1, in the assay with ISG genes (5 ng/ml, fibroblasts and macrophages (FIG. 8A, 8B)), the ISG gene expression result is “significantly promote the ISG gene expression”. Further, in assay [1] (S100A8/A9 12.5 μg/kg ip every two days, 35th day after damage (FIG. 8C)), the “healing of ear holes” value is given as “significantly promoted the healing of the ear holes”. The “complete closure of ear holes” value in assay [1] (S100A8/A9 12.5 μg/kg, 35th day after damage) is “one of the ear holes was completely closed”. The “HE and Masson staining, regenerated structures” value in assay [1] (S100A8/A9 (FIG. 8D)) was “regeneration of various tissue structures, such as epidermis, dermis, hair follicles, glands, cartilage”.

B2: interferon (IFN) γ: cytokine interferon γ (protein, UniProt P01579 24-161, looked up)
Interferon gamma: QDPYVKEAENLKKYFNAGHSDVADNGTLFLGILKNWKEESDRKIMQSQIVSFYFKLFKNFKDDQSIQKSVETIKEDMNVKFFNSNKKKRDDFEKLTNYSVTDLNVQRKAIHELIQVMAELSPAAKTGKRKRSQMLFRG
Consider B2, for which the ISG gene expression result in the assay on ISG genes (10 ng/ml, fibroblasts and macrophages (FIG. 7A, 7B)) was “significantly promote the ISG gene expression”. The “healing of ear holes” value in assay [1] (IFNγ 50 μg/kg ip once every two days, 35th day after damage (FIG. 7C)) is given as “significantly promoted the healing of ear holes after damage”.
